Source: ChEMBL document CHEMBL4689842, “EUbOPEN Chemogenomics Library wave 1” (2021)

Experiments:
Assay type in all cases: toxicity, cell-based
U2OS = test: Incucyte cell viability with U2OS; details: human, 10 µM, compound concentration 10 uM
Fibroblast = test: Incucyte cell viability with human fibroblast; details: 10 µM, compound concentration 10 uM
HEK-293T = test: Incucyte cell viability with HEK293T; details: human, 10 µM, compound concentration 10 uM
[1] = 0 h, replicate number 1, timepoint 0 hours
[2] = 6 h, replicate number 1, timepoint 6 hours
[3] = 12 h, replicate number 1, timepoint 12 hours
[4] = 18 h, replicate number 1, timepoint 18 hours
[5] = 18 h, replicate number 2, timepoint 18 hours
[6] = 24 h, replicate number 1, timepoint 24 hours
[7] = 24 h, replicate number 2, timepoint 24 hours
[8] = 12 h, replicate number 2, timepoint 12 hours
[9] = 6 h, replicate number 2, timepoint 6 hours
[10] = 0 h, replicate number 2, timepoint 0 hours
Further: filed as whole numbers so only -1 and 0 and 1 occur.

CC(C)NCC(O)c1ccc(N)c(C#N)c1 (stereo not drawn) [CIMATEROL]
Growth Rate (U2OS; [1]): 0 | Growth Rate (U2OS; [2]): 1 | Growth Rate (U2OS; [3]): 1 | Growth Rate (U2OS; [4]): 0 | Growth Rate (U2OS; [5]): 1 | Growth Rate (U2OS; [6]): 1 | Growth Rate (U2OS; [7]): 0 | Growth Rate (Fibroblast; [1]): 0 | Growth Rate (Fibroblast; [8]): 1 | Growth Rate (Fibroblast; [5]): 0 | Growth Rate (Fibroblast; [7]): 1 | Growth Rate (HEK-293T; [1]): 0 | Growth Rate (HEK-293T; [2]): 0 | Growth Rate (HEK-293T; [9]): 1 | Growth Rate (HEK-293T; [3]): 0 | Growth Rate (HEK-293T; [8]): 1 | Growth Rate (HEK-293T; [4]): 0 | Growth Rate (HEK-293T; [5]): 1 | Growth Rate (HEK-293T; [6]): 0

CC1(C)CNc2cc(NC(=O)c3cccnc3NCc3ccncc3)ccc21.O=P(O)(O)O.O=P(O)(O)O [MOTESANIB DIPHOSPHATE]
Growth Rate (U2OS; [1]): 0 | Growth Rate (U2OS; [10]): 1 | Growth Rate (U2OS; [2]): 1 | Growth Rate (U2OS; [9]): 0 | Growth Rate (U2OS; [3]): 1 | Growth Rate (U2OS; [4]): 1 | Growth Rate (U2OS; [6]): 1 | Growth Rate (U2OS; [7]): 0 | Growth Rate (Fibroblast; [1]): 0 | Growth Rate (Fibroblast; [9]): 0 | Growth Rate (Fibroblast; [3]): 1 | Growth Rate (Fibroblast; [8]): 0 | Growth Rate (Fibroblast; [4]): 1 | Growth Rate (Fibroblast; [5]): 0 | Growth Rate (Fibroblast; [6]): 1 | Growth Rate (Fibroblast; [7]): 0 | Growth Rate (HEK-293T; [1]): 0

Cc1nc(C#Cc2ccnc(Cl)c2)c(C)n1-c1ccc(OC(F)(F)F)cc1
Growth Rate (U2OS; [1]): 0 | Growth Rate (U2OS; [3]): 1 | Growth Rate (U2OS; [4]): 1 | Growth Rate (U2OS; [6]): 1 | Growth Rate (Fibroblast; [1]): 1 | Growth Rate (Fibroblast; [10]): 0 | Growth Rate (Fibroblast; [2]): 1 | Growth Rate (Fibroblast; [9]): 0 | Growth Rate (Fibroblast; [3]): 0 | Growth Rate (Fibroblast; [4]): 1 | Growth Rate (Fibroblast; [5]): 0 | Growth Rate (Fibroblast; [6]): 1 | Growth Rate (Fibroblast; [7]): 0 | Growth Rate (HEK-293T; [1]): 0 | Growth Rate (HEK-293T; [2]): 0 | Growth Rate (HEK-293T; [3]): 0 | Growth Rate (HEK-293T; [4]): 0 | Growth Rate (HEK-293T; [6]): 0

CCCCN(CCCC)C(=O)CN1C[C@@H](c2ccc3c(c2)OCO3)[C@H](C(=O)O)[C@H]1c1ccc(OC)cc1
Growth Rate (U2OS; [2]): 0 | Growth Rate (U2OS; [3]): 0 | Growth Rate (U2OS; [4]): 0 | Growth Rate (U2OS; [6]): 0 | Growth Rate (Fibroblast; [1]): 0 | Growth Rate (Fibroblast; [9]): 0 | Growth Rate (Fibroblast; [8]): 1 | Growth Rate (Fibroblast; [4]): 1 | Growth Rate (Fibroblast; [6]): 1 | Growth Rate (Fibroblast; [7]): 0 | Growth Rate (HEK-293T; [1]): 0 | Growth Rate (HEK-293T; [2]): 1 | Growth Rate (HEK-293T; [3]): 1 | Growth Rate (HEK-293T; [4]): 1 | Growth Rate (HEK-293T; [5]): 0 | Growth Rate (HEK-293T; [6]): 1 | Growth Rate (HEK-293T; [7]): 0

CCCc1cc(C)[nH]c(=O)c1CNC(=O)c1cc(-c2ccnc(N3CCN(C)CC3)c2)cc2c1cnn2C(C)C
Growth Rate (U2OS; [1]): 0 | Growth Rate (U2OS; [2]): 0 | Growth Rate (U2OS; [3]): 1 | Growth Rate (U2OS; [4]): 0 | Growth Rate (U2OS; [6]): 0 | Growth Rate (U2OS; [7]): 1 | Growth Rate (Fibroblast; [1]): 0 | Growth Rate (Fibroblast; [9]): 0 | Growth Rate (Fibroblast; [3]): 1 | Growth Rate (Fibroblast; [4]): 1 | Growth Rate (Fibroblast; [5]): 0 | Growth Rate (Fibroblast; [6]): 1 | Growth Rate (Fibroblast; [7]): 0 | Growth Rate (HEK-293T; [10]): 1 | Growth Rate (HEK-293T; [2]): 0 | Growth Rate (HEK-293T; [3]): 0 | Growth Rate (HEK-293T; [4]): 0 | Growth Rate (HEK-293T; [6]): 0

CNc1nc(-c2ccc3c(N)n[nH]c3c2)cc(N2C[C@@H](C(=O)NC3CCCCC3)CC[C@H]2C)n1
Growth Rate (U2OS; [2]): 1 | Growth Rate (U2OS; [3]): 0 | Growth Rate (U2OS; [8]): 1 | Growth Rate (U2OS; [4]): 0 | Growth Rate (U2OS; [6]): 0 | Growth Rate (Fibroblast; [1]): 0 | Growth Rate (Fibroblast; [2]): 1 | Growth Rate (Fibroblast; [3]): 0 | Growth Rate (Fibroblast; [4]): 0 | Growth Rate (Fibroblast; [6]): 0 | Growth Rate (HEK-293T; [1]): 0 | Growth Rate (HEK-293T; [10]): 1 | Growth Rate (HEK-293T; [9]): 0 | Growth Rate (HEK-293T; [8]): 0 | Growth Rate (HEK-293T; [5]): 1 | Growth Rate (HEK-293T; [6]): 1 | Growth Rate (HEK-293T; [7]): 0

COc1cccc(CNC(=O)c2nc3scc(CN(C)Cc4ccccc4)c3c(=O)[nH]2)c1 [T-26f]
Growth Rate (U2OS; [1]): 0 | Growth Rate (U2OS; [2]): 1 | Growth Rate (U2OS; [3]): 1 | Growth Rate (U2OS; [4]): 1 | Growth Rate (U2OS; [5]): 0 | Growth Rate (U2OS; [6]): 1 | Growth Rate (Fibroblast; [1]): 0 | Growth Rate (Fibroblast; [2]): 0 | Growth Rate (Fibroblast; [3]): 0 | Growth Rate (Fibroblast; [8]): 1 | Growth Rate (Fibroblast; [4]): 0 | Growth Rate (Fibroblast; [5]): 1 | Growth Rate (Fibroblast; [6]): 0 | Growth Rate (Fibroblast; [7]): 1 | Growth Rate (HEK-293T; [1]): 0 | Growth Rate (HEK-293T; [10]): 1

N#Cc1ccccc1OCC(O)CNCCNC(=O)Nc1ccccc1 (stereo not drawn) [ICI-89406]
Growth Rate (U2OS; [1]): 0 | Growth Rate (U2OS; [2]): 1 | Growth Rate (U2OS; [9]): 0 | Growth Rate (U2OS; [3]): 0 | Growth Rate (U2OS; [4]): 0 | Growth Rate (U2OS; [6]): 1 | Growth Rate (U2OS; [7]): 0 | Growth Rate (Fibroblast; [1]): 0 | Growth Rate (Fibroblast; [2]): 0 | Growth Rate (Fibroblast; [3]): 0 | Growth Rate (Fibroblast; [4]): 0 | Growth Rate (Fibroblast; [6]): 0 | Growth Rate (HEK-293T; [1]): 1 | Growth Rate (HEK-293T; [10]): 0 | Growth Rate (HEK-293T; [2]): 0 | Growth Rate (HEK-293T; [3]): 0 | Growth Rate (HEK-293T; [8]): 1 | Growth Rate (HEK-293T; [4]): 1 | Growth Rate (HEK-293T; [6]): 1

N#Cc1ccc(Nc2ccc3[nH]c(=O)[nH]c3c2)c(Cl)c1 [TP-021n]
Growth Rate (U2OS; [1]): 1 | Growth Rate (U2OS; [10]): 0 | Growth Rate (U2OS; [2]): 0 | Growth Rate (U2OS; [3]): 0 | Growth Rate (U2OS; [4]): 0 | Growth Rate (U2OS; [5]): 1 | Growth Rate (U2OS; [6]): 0 | Growth Rate (Fibroblast; [10]): 1 | Growth Rate (Fibroblast; [2]): 0 | Growth Rate (Fibroblast; [3]): 0 | Growth Rate (Fibroblast; [4]): 0 | Growth Rate (Fibroblast; [5]): 1 | Growth Rate (Fibroblast; [6]): 0 | Growth Rate (HEK-293T; [1]): 0 | Growth Rate (HEK-293T; [10]): 1 | Growth Rate (HEK-293T; [7]): 1

CNc1cc2[nH]c(=O)n(-c3ccc(NC(=O)NS(=O)(=O)c4ccc(Cl)s4)cc3)c(=O)c2cc1F [ELINOGREL]
Growth Rate (U2OS; [1]): 1 | Growth Rate (U2OS; [2]): 0 | Growth Rate (U2OS; [3]): 0 | Growth Rate (U2OS; [8]): 1 | Growth Rate (U2OS; [4]): 0 | Growth Rate (U2OS; [5]): 1 | Growth Rate (U2OS; [6]): 0 | Growth Rate (U2OS; [7]): 1 | Growth Rate (Fibroblast; [1]): 0 | Growth Rate (Fibroblast; [10]): 1 | Growth Rate (Fibroblast; [9]): 0 | Growth Rate (Fibroblast; [3]): 1 | Growth Rate (Fibroblast; [8]): 0 | Growth Rate (Fibroblast; [4]): 1 | Growth Rate (Fibroblast; [5]): 0 | Growth Rate (Fibroblast; [6]): 1 | Growth Rate (Fibroblast; [7]): 0 | Growth Rate (HEK-293T; [1]): 1 | Growth Rate (HEK-293T; [10]): 0 | Growth Rate (HEK-293T; [2]): 0 | Growth Rate (HEK-293T; [3]): 0 | Growth Rate (HEK-293T; [8]): 1 | Growth Rate (HEK-293T; [4]): 0 | Growth Rate (HEK-293T; [5]): 1 | Growth Rate (HEK-293T; [6]): 0 | Growth Rate (HEK-293T; [7]): 1
